# Results from ChEMBL document CHEMBL5331050, “Spiro[benzoxazine-piperidin]-one derivatives as chitin synthase inhibitors and antifungal agents: Design, synthesis and biological evaluation” (Eur J Med Chem, 2022).
# Key:
# [1] = Inhibition of chitin synthase (unknown origin); parameters: species or system Fungi
# Cryptococcus neoformans [2] = assay: Antifungal activity against Cryptococcus neoformans ATCC 208821 assessed as fungal growth inhibition incubated for 24 hrs by CLSI protocol based broth microdilution method; format: functional
# Candida albicans [3] = assay: Antifungal activity against Candida albicans ATCC 76615 assessed as disruption of fungal wall by measuring fungal growth incubated for 24 hrs in the presence of sorbitol; format: functional
# [4] = Inhibition of Candida tropicalis ATCC 750 chitin synthase using UDP-GlcNAc as substrate incubated for 1 hrs by absorbance based assay
# Aspergillus fumigatus [5] = assay: Synergistic antifungal activity against Aspergillus fumigatus GIMCC 3.19 assessed as fractional inhibitory concentration index incubated for 24 hrs in the presence of fluconazole by broth dilution based checkerboard method; format: functional
# Aspergillus fumigatus [6] = assay: Antifungal activity against Aspergillus fumigatus GIMCC 3.19 assessed as fungal growth inhibition incubated for 24 hrs by CLSI protocol based broth microdilution method; format: functional
# Aspergillus flavus [7] = assay: Synergistic antifungal activity against Aspergillus flavus ATCC 16870 assessed as fungal growth inhibition incubated for 24 hrs in the presence of fluconazole by broth dilution based checkerboard method; format: functional
# Aspergillus fumigatus [8] = assay: Synergistic antifungal activity against Aspergillus fumigatus GIMCC 3.19 assessed as fungal growth inhibition incubated for 24 hrs in the presence of fluconazole by broth dilution based checkerboard method; format: functional
# [9] = Selectivity ratio of MIC for antifungal activity against Candida albicans ATCC 76615 assessed as disruption of fungal wall by measuring fungal growth incubated for 24 hrs in the presence of sorbitol to MIC for antifungal activity against Candida albicans ATCC 76615 assessed as fungal growth inhibition; format: functional
# Cryptococcus neoformans [10] = assay: Antifungal activity against fluconazole-resistant Cryptococcus neoformans ATCC 208821R assessed as fungal growth inhibition; format: functional
# Cryptococcus neoformans [11] = assay: Synergistic antifungal activity against Cryptococcus neoformans ATCC 208821 assessed as fungal growth inhibition incubated for 24 hrs in the presence of fluconazole by broth dilution based checkerboard method; format: functional
# Aspergillus flavus [12] = assay: Synergistic antifungal activity against Aspergillus flavus ATCC 16870 assessed as fractional inhibitory concentration index incubated for 24 hrs in the presence of fluconazole by broth dilution based checkerboard method; format: functional
# Aspergillus fumigatus [13] = assay: Antifungal activity against Aspergillus fumigatus GIMCC 3.19 assessed as disruption of fungal wall by measuring fungal growth incubated for 24 hrs in the presence of sorbitol; format: functional
# Candida albicans [14] = assay: Antifungal activity against micafungin-resistant Candida albicans ATCC 76615R assessed as fungal growth inhibition; format: functional
# Cryptococcus neoformans [15] = assay: Synergistic antifungal activity against Cryptococcus neoformans ATCC 208821 assessed as fractional inhibitory concentration index incubated for 24 hrs in the presence of fluconazole by broth dilution based checkerboard method; format: functional
# Candida albicans [16] = assay: Synergistic antifungal activity against Candida albicans ATCC 76615 assessed as fractional inhibitory concentration index incubated for 24 hrs in the presence of fluconazole by broth dilution based checkerboard method; format: functional
# Aspergillus flavus [17] = assay: Antifungal activity against Aspergillus flavus ATCC 16870 assessed as fungal growth inhibition incubated for 24 hrs by CLSI protocol based broth microdilution method; format: functional
# Candida albicans [18] = assay: Antifungal activity against Candida albicans ATCC 76615 assessed as fungal growth inhibition incubated for 24 hrs by CLSI protocol based broth microdilution method; format: functional
# Candida albicans [19] = assay: Synergistic antifungal activity against Candida albicans ATCC 76615 assessed as fungal growth inhibition incubated for 24 hrs in the presence of fluconazole by broth dilution based checkerboard method; format: functional
# Candida albicans [20] = assay: Antifungal activity against fluconazole-resistant Candida albicans ATCC 76615R assessed as fungal growth inhibition; format: functional
# Aspergillus flavus [21] = assay: Antifungal activity against Aspergillus flavus ATCC 16870 assessed as disruption of fungal wall by measuring fungal growth incubated for 24 hrs in the presence of sorbitol; format: functional
# Cryptococcus neoformans [22] = assay: Antifungal activity against Cryptococcus neoformans ATCC 208821 assessed as disruption of fungal wall by measuring fungal growth incubated for 24 hrs in the presence of sorbitol; format: functional
# Candida tropicalis = assay: Inhibition of Candida tropicalis ATCC 750 chitin synthase using UDP-GlcNAc as substrate at 300 ug/ml incubated for 1 hrs by absorbance based assay relative to control; conditions: dose 300.0 µg/ml
structure (smiles),measurement,setting,value
Cc1cccc(NC(=O)/C=C/C(=O)NC2Cc3ccccc3NC2=O)c1 (centres undefined),IC50,[1],90 µM
COc1ccc2c(c1)C1(CCN(C(=O)/C=C/C(=O)Nc3ccc(Br)cc3)CC1)OC(=O)N2,MIC,Cryptococcus neoformans [2],64 µg/mL
same,MIC,Candida albicans [3],256 µg/mL
same,IC50,[4],140 µM
same,fractional inhibitory concentration index (FICI),Aspergillus fumigatus [5],1.25
same,MIC,Aspergillus fumigatus [6],64 µg/mL
same,MIC,Aspergillus flavus [7],53.3 µg/mL
same,MIC,Aspergillus fumigatus [8],32 µg/mL
same,Ratio,[9],8
same,MIC,Cryptococcus neoformans [10],53.3 µg/mL
same,MIC,Cryptococcus neoformans [11],32 µg/mL
same,fractional inhibitory concentration index (FICI),Aspergillus flavus [12],3.67
same,MIC,Aspergillus fumigatus [13],512 µg/mL
same,MIC,Candida albicans [14],32 µg/mL
same,fractional inhibitory concentration index (FICI),Cryptococcus neoformans [15],1
same,fractional inhibitory concentration index (FICI),Candida albicans [16],0.85
same,MIC,Aspergillus flavus [17],32 µg/mL
same,MIC,Candida albicans [18],26.7 µg/mL
same,MIC,Candida albicans [19],16 µg/mL
same,MIC,Candida albicans [20],32 µg/mL
same,MIC,Aspergillus flavus [21],256 µg/mL
same,MIC,Cryptococcus neoformans [22],256 µg/mL
same,inhibition,Candida tropicalis,83%
O=C(/C=C/C(=O)N1CCCC12Cc1ccccc1NC2=O)Nc1cccc([N+](=O)[O-])c1 (centres undefined),IC50,[1],100 µM
